By IC50 is commonly meant the midpoint of a concentration-inhibition curve.

One assay deals with B. anthracis Sterne. Description: microbe, parasite or virus in culture. It counts as cell-based. The settings on record: for MIC: Bacillus anthracis, read-out: Bacteriostatic MIC95, B. anthracis Sterne.
In a further assay the test system is S. aureus Mu50. Description: Bacteriostatic effect, S. aureus Mu50. Conditions: for MIC: Staphylococcus aureus; for Bacteriostatic MIC95, S. aureus Mu50: Table 2.
Another assay has as its target BsSecA (Bacillus subtilis, UniProt P28366). Description: cell-based. Set-up: species or system B. subtilis. Conditions: Ion channel, IC50, BsSecA, Table 5.
The next assay has as its system B. subtilis 168. Put plainly: Bacteriostatic effect, liquid microdilution, B. subtilis 168. It counts as cell-based. The settings on record: Bacillus subtilis, Example 2.
The target in another assay is EcSecA (Escherichia coli, UniProt P10408). Put plainly: cell-based.
Another assay addresses EcSecA N68 (Escherichia coli, UniProt P10408). Description: biochemical. Type of assay: biochemical, E. coli.
Where [1] appears, read: MU50, read-out: Bacteriostatic MIC95, S. aureus Mu50, Table 2.
The mark [2] stands for this setting: MU50, read-out: Bacteriostatic effect MIC, S. aureus Mu50, Table 10 and Example 4.
[3] abbreviates: Ion channel, IC50, EcSecA, Table 5.
Where [4] appears, read: MU50, read-out: MIC95 against drug resistant S. aureus Mu50.

≈ marks a conversion by molar mass, not a printed value. Where two headings read alike, the source gives them in different places.

EcSecA, sequence (P10408 whole entry): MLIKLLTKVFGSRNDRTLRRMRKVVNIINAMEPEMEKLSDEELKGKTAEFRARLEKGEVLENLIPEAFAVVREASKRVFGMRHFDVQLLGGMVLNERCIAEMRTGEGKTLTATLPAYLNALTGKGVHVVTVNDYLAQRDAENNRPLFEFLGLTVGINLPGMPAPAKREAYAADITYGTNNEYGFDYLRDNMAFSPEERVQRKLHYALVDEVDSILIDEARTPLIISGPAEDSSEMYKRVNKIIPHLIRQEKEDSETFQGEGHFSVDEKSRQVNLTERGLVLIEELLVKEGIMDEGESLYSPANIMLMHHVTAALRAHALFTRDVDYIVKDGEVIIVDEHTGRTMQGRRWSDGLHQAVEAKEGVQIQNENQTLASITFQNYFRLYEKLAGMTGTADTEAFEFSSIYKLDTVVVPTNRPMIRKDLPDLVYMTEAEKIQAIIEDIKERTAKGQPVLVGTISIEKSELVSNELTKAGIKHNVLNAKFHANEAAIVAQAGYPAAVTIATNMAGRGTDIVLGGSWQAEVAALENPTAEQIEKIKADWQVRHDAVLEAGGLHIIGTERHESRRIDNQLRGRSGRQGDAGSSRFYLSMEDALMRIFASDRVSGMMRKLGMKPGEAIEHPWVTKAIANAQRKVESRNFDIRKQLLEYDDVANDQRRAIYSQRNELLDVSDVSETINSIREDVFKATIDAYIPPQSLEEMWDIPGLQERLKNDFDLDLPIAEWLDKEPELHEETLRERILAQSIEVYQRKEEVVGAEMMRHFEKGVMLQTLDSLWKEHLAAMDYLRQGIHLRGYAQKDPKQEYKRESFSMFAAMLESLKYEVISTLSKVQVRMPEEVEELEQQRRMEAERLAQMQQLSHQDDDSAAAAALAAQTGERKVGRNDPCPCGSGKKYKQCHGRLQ
BsSecA, sequence (P28366 whole entry): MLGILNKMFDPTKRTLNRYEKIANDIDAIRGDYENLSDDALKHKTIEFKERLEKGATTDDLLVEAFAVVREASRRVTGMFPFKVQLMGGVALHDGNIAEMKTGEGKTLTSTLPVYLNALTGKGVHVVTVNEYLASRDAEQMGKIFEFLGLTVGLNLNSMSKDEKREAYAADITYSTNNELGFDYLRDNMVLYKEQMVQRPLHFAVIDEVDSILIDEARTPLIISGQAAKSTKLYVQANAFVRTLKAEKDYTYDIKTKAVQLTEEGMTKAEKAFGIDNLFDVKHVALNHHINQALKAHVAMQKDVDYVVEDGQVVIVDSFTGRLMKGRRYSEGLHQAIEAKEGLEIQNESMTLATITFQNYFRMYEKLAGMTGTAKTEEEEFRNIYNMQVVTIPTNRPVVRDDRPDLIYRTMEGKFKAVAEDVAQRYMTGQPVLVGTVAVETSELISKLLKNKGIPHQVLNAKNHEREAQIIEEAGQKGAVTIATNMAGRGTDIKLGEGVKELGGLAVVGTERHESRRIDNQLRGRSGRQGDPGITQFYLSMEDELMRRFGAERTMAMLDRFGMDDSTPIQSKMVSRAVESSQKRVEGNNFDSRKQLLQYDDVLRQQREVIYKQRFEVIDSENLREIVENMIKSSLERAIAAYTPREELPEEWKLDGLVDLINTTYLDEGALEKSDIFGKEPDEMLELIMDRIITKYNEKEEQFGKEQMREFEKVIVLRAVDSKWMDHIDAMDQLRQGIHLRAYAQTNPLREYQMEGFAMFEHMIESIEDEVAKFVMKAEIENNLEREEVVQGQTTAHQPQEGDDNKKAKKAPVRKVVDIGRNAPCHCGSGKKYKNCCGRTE
EcSecA N68, sequence (P10408 1-610): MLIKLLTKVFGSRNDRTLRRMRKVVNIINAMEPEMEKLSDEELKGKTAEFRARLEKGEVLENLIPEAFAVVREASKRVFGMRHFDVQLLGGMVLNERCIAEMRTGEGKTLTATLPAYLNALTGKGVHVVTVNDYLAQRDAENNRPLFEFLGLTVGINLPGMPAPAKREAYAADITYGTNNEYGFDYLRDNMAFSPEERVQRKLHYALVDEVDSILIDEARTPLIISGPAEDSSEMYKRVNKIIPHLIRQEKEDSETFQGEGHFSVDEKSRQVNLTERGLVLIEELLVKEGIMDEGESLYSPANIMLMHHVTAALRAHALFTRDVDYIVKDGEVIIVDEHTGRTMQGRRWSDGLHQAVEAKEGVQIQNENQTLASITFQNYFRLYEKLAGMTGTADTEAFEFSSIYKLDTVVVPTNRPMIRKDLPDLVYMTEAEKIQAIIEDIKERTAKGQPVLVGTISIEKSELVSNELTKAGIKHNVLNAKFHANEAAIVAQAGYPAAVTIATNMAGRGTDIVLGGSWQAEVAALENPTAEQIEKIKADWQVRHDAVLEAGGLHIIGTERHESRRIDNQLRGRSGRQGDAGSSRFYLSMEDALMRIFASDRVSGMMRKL

With `CC1(C)S[C@@H]2[C@H](NC(=O)[C@H](N)c3ccccc3)C(=O)N2[C@H]1C(=O)O` [Ampicillin], the MIC in the assay on B. anthracis Sterne is over 20 µg/mL; in the assay on S. aureus Mu50 (setting [1]), 7.8 µg/mL; with S. aureus Mu50 (setting [2]) it was 1000 µg/mL.

As to `O=C(N[C@H](CO)[C@H](O)c1ccc([N+](=O)[O-])cc1)C(Cl)Cl` [Chloramphenic], the “Bacteriostatic MIC95, B. anthracis Sterne” value in the assay on B. anthracis Sterne worked out at 10 µg/mL. Further, the “Bacteriostatic MIC95, S. aureus Mu50” value with S. aureus Mu50 was over 40 µg/mL.

Take `Oc1ccc2c(c1)Oc1cc(O)ccc1C2C1CCCC1` [Compound 22a, 9-Cyclopentyl-9H-xanthene-3,6-diol]: the half-inhibitory concentration (IC50) is 3000 nM against BsSecA and 3400 nM on EcSecA (setting [3]). In the assay on B. subtilis 168, this compound gave an MIC of 25 µM (≈ 7.06 µg/mL).

Turning to `CC(C)C1c2ccc(O)cc2Oc2cc(O)ccc21` [Compound 22b, 9-Isopropyl-9H-xanthene-3,6-diol], the results for the IC50 against BsSecA and at EcSecA were 4900 nM and 4300 nM, respectively. The MIC with B. subtilis 168 came out at 75 µM (≈ 19.2 µg/mL).

`CCCCCCC1c2ccc(O)cc2Oc2cc(O)ccc21` [Compound 22c, 9-Hexyl-9H-xanthene-3,6-diol]: the IC50 against BsSecA amounted to 2500 nM; against EcSecA (setting [3]), 2300 nM. For the same compound, in the assay with B. subtilis 168, the MIC came to 13 µM (≈ 3.88 µg/mL).

Take `Oc1c(Br)cc2c(c1Br)Oc1c(cc(Br)c(O)c1Br)C2C1CCCC1` [Compound 23a, 2,4,5,7-Tetrabromo-9-cyclopentyl-9H-xanthene-3,6-diol]: the IC50 was 2400 nM at BsSecA and 2300 nM against EcSecA. Besides, the MIC against B. subtilis 168 was found to be 22 µM (≈ 13.2 µg/mL).

`Oc1c(I)cc2c(c1I)Oc1c(cc(I)c(O)c1I)C2C1CCCC1` [Compound 23b, 9-Cyclopentyl-2,4,5,7-tetraiodo-9H-xanthene-3,6-diol]: the IC50 at BsSecA worked out at 3800 nM; at EcSecA, 2500 nM. Also, the MIC in the assay with B. subtilis 168 is 6 µM (≈ 4.72 µg/mL).

On to `Oc1cc2c(cc1I)C(C1CCCC1)c1cc(I)c(O)c(I)c1O2` (stereo not shown) [Compound 23c], for which the half-maximal inhibitory concentration (IC50) against BsSecA stood at 2800 nM; against EcSecA, 2200 nM. The compound also returned an MIC in the assay on B. subtilis 168 of 6 µM (≈ 3.96 µg/mL).

In the case of `CC(C)C1c2cc(I)c(O)c(I)c2Oc2c1cc(I)c(O)c2I` [Compound 23d, 2,4,5,7-Tetraiodo-9-isopropyl-9H-xanthene-3,6-diol], the IC50 was 2500 nM at BsSecA and 2800 nM at EcSecA. In the assay with B. subtilis 168, this compound had an MIC of 6 µM (≈ 4.56 µg/mL).

Turning to `CN(C)c1ccc2c(c1)Oc1cc(N(C)C)ccc1C2C1CCCC1` [Compound 30, 9-Cyclopentyl-N3,N3,N6,N6-tetramethyl-9H-xanthene-3,6-diamine], the “Inhibition of EcSecA N68 ATPase, initial screening” value on EcSecA N68 (100 μM, FIG. 1) was “weak or no activity”.

`O=C(O)c1ccccc1-c1c2ccc(=O)c(I)c-2oc2c(I)c(O)ccc12` [DI, Diiodofluorescein, reference compound]: the IC50 on EcSecA N68 (read-out: IC50, EcN68 SecA ATPase (unregulated ATPase)) was determined as 30000 nM.

In the case of `CC[C@H]1OC(=O)[C@H](C)[C@@H](O[C@H]2C[C@@](C)(OC)[C@@H](O)[C@H](C)O2)[C@H](C)[C@@H](O[C@@H]2O[C@H](C)C[C@H](N(C)C)[C@H]2O)[C@](C)(O)C[C@@H](C)C(=O)[C@H](C)[C@@H](O)[C@]1(C)O` [Erythromycin], the MIC was 0.3 µg/mL (≈ 0.409 µM) in the assay on B. anthracis Sterne, over 500 µg/mL with S. aureus Mu50 (setting [1]), over 1250 µg/mL with S. aureus Mu50 (setting [2]) and over 100 µM in the assay with S. aureus Mu50 (setting [4]).

Turning to `NC[C@H]1O[C@H](O[C@H]2[C@H](O)[C@@H](O[C@H]3O[C@H](CO)[C@@H](O)[C@H](N)[C@H]3O)[C@H](N)C[C@@H]2N)[C@H](O)[C@@H](O)[C@@H]1O` [Kanamycin], the MIC in the assay with S. aureus Mu50 (setting [2]) was 1000 µg/mL; with S. aureus Mu50 (setting [4]), over 100 µM.

For the compound `CCn1cc(C(=O)O)c(=O)c2cc(F)c(N3CCNCC3)cc21` [Norfloxacin], the MIC with S. aureus Mu50 (setting [2]) was 250 µg/mL.

Consider `CO[C@H]1/C=C/O[C@@]2(C)Oc3c(C)c(O)c4c(O)c(c(/C=N/N5CCN(C)CC5)c(O)c4c3C2=O)NC(=O)/C(C)=C\C=C\[C@H](C)[C@H](O)[C@@H](C)[C@@H](O)[C@@H](C)[C@H](OC(C)=O)[C@@H]1C` [Rifampicin], for which the MIC with S. aureus Mu50 (setting [2]) is over 1000 µg/mL.

Consider `CN(C)[C@@H]1C(O)=C(C(N)=O)C(=O)[C@@]2(O)C(O)=C3C(=O)c4c(O)cccc4[C@@](C)(O)[C@H]3C[C@@H]12` [Tetracycline], for which the MIC with B. anthracis Sterne is 0.1 µg/mL (≈ 0.225 µM); in the assay with S. aureus Mu50 (setting [1]), 200 µg/mL; in the assay with S. aureus Mu50 (setting [2]), 62.5 µg/mL; with S. aureus Mu50 (setting [4]), over 100 µM.

On to `CN[C@H](CC(C)C)C(=O)N[C@H]1C(=O)N[C@@H](CC(N)=O)C(=O)N[C@H]2C(=O)N[C@H]3C(=O)N[C@H](C(=O)N[C@H](C(=O)O)c4cc(O)cc(O)c4-c4cc3ccc4O)[C@H](O)c3ccc(c(Cl)c3)Oc3cc2cc(c3O[C@@H]2O[C@H](CO)[C@@H](O)[C@H](O)[C@H]2O[C@H]2C[C@](C)(N)[C@H](O)[C@H](C)O2)Oc2ccc(cc2Cl)[C@H]1O` [Vancomycin], for which the MIC in the assay with B. anthracis Sterne was found to be 2.5 µg/mL (≈ 1.73 µM); with S. aureus Mu50 (MU50, read-out: Bacteriostatic MIC95, S. aureus Mu50) it was 5 µg/mL; in the assay with S. aureus Mu50 (MU50, read-out: Bacteriostatic effect MIC, S. aureus Mu50) it was 7.8 µg/mL; in the assay with S. aureus Mu50 (setting [4]), 5 µM.

Gentamycin: in the assay on B. anthracis Sterne (Table 2), the “Bacteriostatic MIC95, B. anthracis Sterne” value turned out to be 5 µg/mL. The “Bacteriostatic MIC95, S. aureus Mu50” value with S. aureus Mu50 is over 500 µg/mL.

Take Polymyxin B: the “Bacteriostatic MIC95, B. anthracis Sterne” value with B. anthracis Sterne (Table 2) came out at 10 µg/mL. Further, the “Bacteriostatic MIC95, S. aureus Mu50” value with S. aureus Mu50 was determined as 15 µg/mL. In the assay on S. aureus Mu50 (Table 10 and text of Example 4), the “Bacteriostatic effect MIC, S. aureus Mu50” value came out at 31.3 µg/mL.

The values are drawn from US9957247B2, “SecA inhibitors and methods of making and using thereof” (Georgia State University Research Foundation, Inc., priority 2012, dated 2018).
